Row | melting point [°C] | SMILES
1 | 166 to 167 | CN(C)C(=O)CCc1cc(-c2ccncc2)sc1-c1ccncc1
2 | 180 | Cc1cc(-c2ccc(-c3ccc(OCC4CO4)cc3)cc2)ccc1OCC1CO1 (centres undefined)
3 | 237 to 238 | Cc1nc2c3c(c(C(=O)NCCCO)cc2n1C)CCC1(Cc2ccccc2C1)N3
4 | 59 to 61 | C=CN1CC/C(=C\C)C1=O
5 | 230 to 240 | Cc1ccnc(Nc2nc(-c3ccc4c(c3)OCCO4)cs2)c1
6 | 99 to 100 | CCOC(=O)C=Cc1ccc2c(c1)CC(NC(=O)OC(C)(C)C)CC2 (centres undefined)
7 | 49 to 54 | O=CNc1ccccc1CCO
8 | 217 to 218 | CC(C)(CO)CNC(=O)c1n[nH]cc1NC(=O)c1ccccn1
9 | 81 to 82 | CCCCCCC(C)OC(=O)c1ccc(-c2ccc(-c3ccc(C(=O)OC(C)CCCCCC)cc3)cc2)cc1 (centres undefined)
10 | 98 to 101 | Cc1ccc(C(C)C)c2c1CC(NNc1ncnc3c1ncn3C1OC(CO)C(O)C1O)CO2 (centres undefined)
11 | 136 to 140 | CCOC1CC2(C)C(CCC3C2C(=NO)CC2(C)C3CCC23OCCO3)CC1O (centres undefined)
12 | 64 to 65 | Cc1ncsc1C(=O)CCCSc1nnnn1C
13 | 98 to 100 | O=C1C(=O)c2ccccc2C2=C1SCC1(CCCN(C(=O)c3cccc(Cl)c3)CC1)O2 (centres undefined)
14 | 167 to 168 | COc1cc2ncnc(Nc3ccc(F)c(Cl)c3)c2cc1OCCC1OCCO1
15 | 69 to 70 | CC(C)(C)OC(=O)N1CCC(=Cc2ccc(F)cc2)CC1
16 | 197 to 200 | COc1cccc(C(=O)n2c3c(c4ccccc42)CC(C(=O)O)CC3)c1 (centres undefined)
17 | 184 to 185 | CCCCOc1ncc(C(C)=O)cc1-c1nc2c(CC)n(CC3CC3)nc2c(=O)[nH]1
18 | 72 to 75 | COC(=O)NCc1cc(C(C)=NOCc2cccc(C)n2)ccc1C
19 | 101 to 102 | O=C(SCCC(=O)N1CCC[C@H]1C(=O)O)c1ccccc1
20 | 224 to 227 | Cc1cc(=O)[nH]nc1-c1cccc(C(F)(F)F)c1
21 | 116 to 118 | O=C(Nc1ccc(-n2nc(C3CCCO3)cc2C(F)(F)F)cc1)c1ccncc1F (centres undefined)
22 | 140 to 142 | Clc1cc(OCCOc2ccc3ccccc3c2)cc(Cl)c1Br
23 | 102 to 105 | CC(C)c1cc(-c2cc(C(=O)Cl)ccc2S(C)(=O)=O)on1

Row | melting point [°C] | SMILES
24 | 234 | O=C(Nc1ccc(OCCNCC2CC2)cc1)c1c[nH]c2c1C(=O)CCC2
25 | 176 to 179 | COc1cc2cc(c1Cl)N(C)C(=O)CC(OC(=O)C(C)N(C)C(=O)C(C)C)C1(C)OC1C(C)C1CC(O)(NC(=O)O1)C(OC)C=CC=C(C)C2OC (centres undefined)
26 | 198 | CC(C)Cn1c(=O)n(C)c(=O)c2c(Sc3cccs3)c(Cn3cnc4ccccc43)sc21
27 | 97 to 99 | CCOC(=O)C(O)Cc1ccc(OCCNC(=O)c2ccc(-c3ccccn3)cc2)cc1 (centres undefined)
28 | 73 to 74 | CCCOC(=O)c1sc(C(=O)OCCC)c(OS(=O)(=O)c2ccc(Br)cc2)c1C
29 | 162 to 163 | Nc1ccc2c(=O)n(-c3ccccc3)c(=O)n(-c3ccccc3)c2n1
30 | 171 to 174 | CS(=O)(=O)c1ccc(-c2sc(-c3ccccc3Cl)nc2-c2cccs2)cc1
31 | 115 to 116 | O=S(=O)(Nc1ccc(Cl)c(F)c1)c1ccccc1
32 | 168 to 170 | COCc1cc2c(C(=O)Nc3c(C)noc3C)ccc(OC)c2o1
33 | 95 to 97 | O=C(c1cccnc1)N1CCC(c2ccccc2C(F)(F)F)=N1
34 | 159 to 161 | CC(C)(C)c1cc(CCCO)cc(-n2nc3ccc(S(=O)(=O)c4ccccc4)cc3n2)c1O
35 | 82.5 to 83.5 | O=C(c1ccncc1)N1CCN=C1Nc1c(Cl)cccc1Cl
36 | 236 to 239 | CS(=O)(=O)c1ccc(-c2cccn3nc(N)nc23)cc1
37 | 200 to 201 | CC(C)(C)c1cc(-c2csc(CNC(=O)c3ccccc3)n2)cc(C(C)(C)C)c1O
38 | 175 to 177 | CNC(=O)c1cc(Oc2ccc3c(C(=O)Nc4cccc(C(F)(F)F)c4)cccc3c2)ccn1
39 | 79 to 80 | COC(=O)C(c1ccc(-c2ccccc2F)cc1)S(C)=O (centres undefined)
40 | 121 to 122 | CN(C)CCOC(=O)c1cc(F)ccc1Nc1ccnc2c(Cl)cccc12
41 | 115 to 116 | CCNC(=C[N+](=O)[O-])NCCSCc1nccs1
42 | 212 to 213 | O=C1Nc2cc(Cl)ccc2Nc2cscc21
43 | 151 to 152 | CC(C)(C)OC(=O)N1CCC(Sc2cc(C(C)(C)C)c(O)c(C(C)(C)C)c2)CC1
44 | 90 to 92 | COc1ccc(N2CCN(CCC3CN(C)C(=O)O3)CC2)cc1OC (centres undefined)
45 | 154 to 156 | COC(=O)c1ccc(NC(=O)C(=Cc2ccccc2)C(=O)C(C)C)cc1
46 | 62 to 63 | CC1(c2ccccc2)SC(=NO)N(Nc2ccccc2)C1=O (centres undefined)

Row | melting point [°C] | SMILES
47 | 152 to 153 | CCCc1c(OCc2ccc(C(=O)O)cc2OCC)ccc(C(C)=O)c1O
48 | 125 to 126 | COc1cc(Br)c2c(c1)CCCN2
49 | 104 to 107 | CS(=O)(=O)c1ccc(C(CC2CCCC2)C(=O)Nc2nccs2)cc1S(C)(=O)=O (centres undefined)
50 | 242 to 244 | CS(=O)(=O)c1sccc1S(N)(=O)=O
51 | 199 | CCCCS(=O)(=O)Cc1ccc(C(=O)Nc2ccc3cc(CN4CCCC4)cnc3c2C)cc1
52 | 311 to 313 | O=C1NC(=O)c2c1c(-c1ccccc1Cl)cc1sc3ccc(O)cc3c21
53 | 246 to 248 | O=C(Nc1nnc(C2CC2)o1)C1c2ccccc2Oc2ccccc21
54 | 156 to 159 | CC(C)(C)C(=O)COc1nn(CC#N)c(-c2ccc(S(C)(=O)=O)cc2)c1-c1ccc(F)cc1
55 | 144 to 145 | Cc1nn(-c2ccc(Cl)cc2)c(C)c1C(=O)N[C@H](C)[C@](O)(Cn1cncn1)c1ccc(F)cc1F
56 | 154 to 155 | CNc1nc(-c2ccc(OCCCn3ccnc3)cc2)no1
57 | 141 to 143 | Cc1ccccc1-n1c(-c2sc(Nc3ccccc3)nc2-c2ccccc2)nc2ccccc2c1=O
58 | 132 to 137 | CC1(C)SC(CCCc2ccc(C(=O)O)cc2)N(CCC2(O)CCCCC2)C1=O (centres undefined)
59 | 54 to 59 | CC(=O)SCC(CC(C)C)C(=O)NCCN1CCOCC1 (centres undefined)
60 | 188 to 190 | CCCCCCCc1ccc(NS(=O)(=O)c2ccc(N3CCNC3=O)cc2)cc1
61 | 198 to 200 | CCCCc1nc(C(F)(F)F)c(CO)n1Cc1ccc(-c2ccccc2C(=O)O)cc1
62 | 81 to 83 | CN(C)CCCCNc1nc2cc(Cl)c(Cl)cc2nc1-c1ccccn1
63 | 127 | CCOC(=O)N1CCC(n2ccc3ccccc32)CC1
64 | 110 to 115 | CN(C)C(=O)c1c(C(=O)CBr)c2cc(Cl)ccc2n1C(=O)OC(C)(C)C
65 | 190 to 192 | CC(=O)SCC(=O)Nc1ccc(C(=O)NCCO)cc1
66 | 298 | COc1ccc(-c2[nH]nc3c2C(=O)c2c(NC(=O)CN4CCSCC4)cccc2-3)cc1
67 | 134 to 135 | CNC(=S)C1=CC(CF)(CF)Oc2ccc([N+](=O)[O-])cc21
68 | 123 to 124 | COc1ccc(C2CC(=O)N(C(=O)Nc3ccc(F)cc3)N2C)cc1OC1CCCC1 (centres undefined)
69 | 160 to 161 | CS(=O)(=O)c1ccc(C(CC2CCCC2)c2nc(Br)c(C(=O)C3CC3)[nH]2)cc1 (centres undefined)

Row | melting point [°C] | SMILES
70 | 173 to 175 | COc1ccc(C(=O)c2csc(S(N)(=O)=O)c2)cc1
71 | 101 to 103 | CC(CCc1ccc(F)cc1)NCc1c(CO)ccc(O)c1CO (centres undefined)
72 | 37.5 to 39.5 | CCOC(=O)C=CN1CCCC1
73 | 254 | O=c1[nH]c2ccc(Cn3ccnc3)cc2[nH]1
74 | 197 to 199 | O=C(O)c1cc(-c2ccc(OCc3ccccc3)cc2)c(=O)n2ccc3ccsc3c12
75 | 197 to 199 | CCCCC(=O)Oc1ccc(-c2nc(-c3ccc(Cl)cc3)c(CC(=O)O)s2)cc1
76 | 140 to 141 | CN(CCC(=O)Nc1ccc2[nH]ncc2c1)Cc1ccccc1
77 | 146 to 147 | O=C(Nc1cccc(Cl)c1)NN1CC=CCC1
78 | 127 to 128 | Cc1cc(OCc2ccccc2)cc(OCC2CCCCC2)c1C(=O)O
79 | 101 to 103 | COc1ccc(-c2[nH]cnc2-c2cc(OC)c(N)c(OC)c2)cc1F
80 | 99 to 101 | COC(C)CCOc1c(-c2ccc(S(C)(=O)=O)cc2)cnn(-c2ccc(F)c(F)c2)c1=O (centres undefined)
81 | 126 to 129 | O=CNc1ccccc1N1CCc2cc(Cl)ccc21
82 | 129 to 131 | CC(=O)OC1CN=C(c2ccccc2Cl)c2ccccc2N(C)C1 (centres undefined)
83 | 154 to 155 | CCNc1cccc(-c2ccnc3c(C(=O)c4cccs4)cnn23)c1
84 | 106 to 109 | CS(=O)(=O)NCc1ccc2[nH]cc(CC#N)c2c1
85 | 190 | COc1cc(-c2nc3cc(F)ccc3s2)ccc1OC(=O)c1cccc([N+](=O)[O-])c1
86 | 176 to 178 | CN1C(=O)C(C(=O)Nc2ccc(Cl)c(Cl)c2)S(=O)(=O)c2cc(Cl)ccc21 (centres undefined)
87 | 66 to 68 | CCCCS(=O)(=O)N1C(SCc2ccc(OC)cc2)=NC(C)(c2cccc([N+](=O)[O-])c2)C(C)(C(=O)OCC)C1c1cccc([N+](=O)[O-])c1 (centres undefined)
88 | 162 to 164 | O=C(NO)c1ccc(CNC(=O)c2[nH]c(-c3ccoc3)cc2-c2ccc(F)cc2)cc1
89 | 193 to 194 | O=C1CC2CCc3cc(O)ccc3C2=NN1c1ccccn1 (centres undefined)
90 | 208 to 210 | O=C(Nc1cccc(-c2cnc(-c3cccc(NC(=O)c4ccccn4)c3)[nH]2)c1)c1ccccn1

Row | SMILES | melting point [°C]
91 | Cc1[nH]c2ccccc2c1CC(=O)N1CCN(C(c2ccc(F)cc2)c2ccc(F)cc2)CC1 | 93 to 103
92 | Cc1sc2c(c1C)C(c1ccc(Cl)cc1)=NC(N)c1nnc(C)n1-2 (centres undefined) | 192 to 197
93 | CN1CCN(c2ccc(C#N)c3ccccc23)CC1 | 128 to 129
94 | Cc1c(C(=O)CBr)ncn1C | 276 to 277
95 | O=[PH]1Oc2ccccc2-c2ccccc21 (centres undefined) | 116
96 | Cc1cccc(C(=O)CCl)c1O | 65 to 66
97 | CCCCC1(N(C)C)CCC(c2[nH]c3ccccc3c2C)(c2[nH]c3ccccc3c2CCNC(=O)Nc2ccccc2)CC1 (centres undefined) | 115 to 120
98 | CCC1=NN=C(c2ccc(OC)c(OC)c2)c2cc(OC)c(OC)cc2C1CC (centres undefined) | 142 to 144
99 | CC1(C)NC(=O)C2CNCCN21 (centres undefined) | 174

— a melting point compilation (Tetko et al.; mined from patent text by program, amines drawn as free bases though some values may be those of a salt)
